According to US11591353B2 (Mindset Pharma Inc., priority 2020, dated 2023):
Where two headings read alike, the source gives them in different places.

How the values were obtained:
[1] = molecular target: human 5-HT2A (h5-HT2A) receptor (Homo sapiens (Human), UniProt P28223); assay: FLIPR assay, human 5-HT2A receptor under agonist mode; type: cell-based; details: agonist mode, FLIPR calcium assay; read-out: h5-HT2A EC50
Method: • I. Assessment of the activated effect of exemplary compounds of Formula I targeting on human 5-HT2A (h5-HT2A) receptor under agonist mode: Compound Preparation and Assay Controls I.a. Reagent and Materials:
1. Culture the cells in cell culture medium (DMEM containing 10% FBS 1× penicillin-streptomycin 300 μg/ml G418 and 100 μg/ml hygromycin B) at 37° C., 5% (v/v) CO2.
2. One day before the assays, detach the cell using TrypLE™ Express and count cells using cell counter.
3. Seed 20000 cells/well in 30 μl/well culture medium to a 384-well cell plate and incubate the cells overnight at 37° C., 5% (v/v) CO2.
4. On the assay day, prepare 2× dye solution following the manual of the FLIPR® Calcium 6 Assay Kit: i. Dilute the dye with assay buffer (20 mM HEPES in 1×HBSS, PH7.4); ii. Add probenecid to the final concentration of 5 mM; iii. Vortex vigorously for 1-2 minutes.
5. Medium from cell plate by flicking the cell plate on towel papers.
6. Add 10 μl of assay buffer and 10 μl of 2× dye solution to each well of the cell plate.
7. Put the cell plate on plate shaker, agitate the plate at 600 rpm for 2 minutes. Incubate the plate at 37° C. for 2 hours followed by additional 15-minute incubation at 25° C.
8. Prepare 3× compound in assay buffer: a. Dilute reference compounds to required concentration with DMSO. Add the compounds to a 384-well compound plate; b. Perform serial dilutions; c. Add 10 mM test compounds to the compound plate, perform 3-fold serial dilutions. d. […] Add 20 μl/well assay buffer to the compound plate; f. Mix the plate on plate shaker for 2 mins;
i. The normalized fluorescence reading (RFU) is calculated as shown follow, while Fmax and Fmin stand for maximum and minimum of calcium signal during defined time window: RFU=Fmax−Fmin
ii. Calculate the percentage activation by using following equation: […]
iii. Calculate EC50 by fitting % activation against log of compound concentrations with Hill equation using XLfit.

human 5-HT2A receptor = human 5-HT2A receptor (Homo sapiens (Human), UniProt P28223); assay: Radioligand binding assay on human 5-HT2A receptor ([3H]-ketanserin)
Method: i. Prepare the assay buffer following the table below;
ii. Preparation of 8 doses of reference and test compounds starting from 10 mM stock solution as requested by 5-fold serial dilutions with 100%;
iii. […] a. Add 50 μl/well of 0.5% (v/v) PEI to UniFilter-96 GF/B plates. Seal the plates and incubate at 4° C. for 3 hrs; b. After incubation, wash the plates 3 times with ice-cold wash buffer (50 mM Tris, pH7.4);
iv. Preparation of assay plates: a. Dilute cell membrane with assay buffer and add 330 μl/well to 96 round deep well plates to reach a concentration of 20 μg/well; b. […] Dilute [3H]-ketanserin with assay buffer to 5 nM (5× final concentration) and add 110 μl/well to 96 round deep well plates.
v. Centrifuge the plate at 1000 rpm for 30 secs and then agitate at 600 rpm, R.T. for 5 min.
vii. Stop the incubation by vacuum filtration onto GF/B filter plates followed by 4 times washing with ice-cold wash buffer (50 mM Tris, pH7.4).
ix. […]
For reference and exemplary test compounds of the application, the results are expressed as % Inhibition, using the normalization equation: N=100−100×(U−C2)/(C1−C2), where U is the unknown value, C1 is the average of high controls, and C2 is the average of low controls. The IC50 is determined by fitting percentage of inhibition as a function of compound concentrations with Hill equation using XLfit.

[2] = Liver microsomes stability, human; details: for Remaining Percentage (%) after 60 min Human: 2 μM, 0.5 mg/mL microsomes
Method: (§1) The objective of this study was to estimate in vitro metabolic stability of I-12 in pooled human, male rat and male mouse liver microsomes. The concentrations of parent compounds in reaction systems were evaluated by LC-MS/MS for estimating the stability in pooled human, male rat and male mouse liver microsomes. The in vitro intrinsic clearances of test compounds were determined as well.
(§2) A master solution in the “Incubation Plate” containing phosphate buffer, ultra-pure H2O, MgCl2 solution and liver microsomes was made according to Table-3. The mixture was pre-warmed at 37° C. water bath for 5 minutes.
(§3) 40 μL of 10 mM NADPH solution was added to each well. The final concentration of NADPH was 1 mM. The negative control samples were prepared by replacing NADPH with 40 μL of ultra-pure H2O. Samples were prepared in duplicate. Negative controls were prepared in singlet.
(§4) The reaction was started with the addition of 4 μL of 200 μM exemplary test compounds of the application or control compounds to each master solution to get the final concentration of 2 μM. This study was performed in duplicate.
(§5) Aliquots of 50 μL were taken from the reaction solution at 0, 15, 30, 45 and 60 minutes. The reaction solutions were stopped by the addition of 4 volumes of cold methanol with IS (100 nM alprazolam, 200 nM imipramine, 200 nM labetalol and 2 μM ketoprofen). Samples were centrifuged at 3,220 g for 40 minutes. Aliquot of 90 μL of the supernatant was mixed with 90 μL of ultra-pure H2O and then was used for LC-MS/MS analysis.
(§6) LC/MS analysis was performed for all samples from this study using a Shimadzu liquid chromatograph separation system equipped with degasser DGU-20A5R; solvent delivery unit LC-30AD; system controller SIL-30AC; column oven CTO-30A; CTC Analytics HTC PAL System. Mass spectrometric analysis was performed using an Triple Quad™ 5500 instrument.
(§7) All calculations were carried out using Microsoft Excel. Peak area ratios of test compound to internal standard (listed in the below table) were determined from extracted ion chromatograms.
(§8) All calculations were carried out using Microsoft Excel. Peak areas were determined from extracted ion chromatograms. The slope value, k, was determined by linear regression of the natural logarithm of the remaining percentage of the parent drug vs. incubation time curve.
(§9) Conversion of the in vitro t1/2 (min) into the in vitro intrinsic clearance (in vitro CLint, in μL/min/mg proteins) was done using the following equation (mean of duplicate determinations): […]

[3] = Liver microsomes stability, rat; details: for Remaining Percentage (%) after 60 min Rat: 2 μM, 0.5 mg/mL microsomes
Method: as §1, §2, §3, §4, §5, §6, §7, §8, §9

[4] = Liver microsomes stability, mouse; details: for Remaining Percentage (%) after 60 min Mouse: 2 μM, 0.5 mg/mL microsomes
Method: as §1, §2, §3, §4, §5, §6, §7, §8, §9

[5] = tobacco use disorder, cited from earlier work

| Structure (SMILES) | EC50 [1] [nM] | IC50 (human 5-HT2A receptor) [nM] | half-life at 2 μM ([2]; human, microsomes) [h] | microsomal CLint at 2 μM ([2]; human, microsomes) [µL/min/mg] | metabolic stability in liver microsomes (in words) ([2]; human, rat and mouse liver microsomes, 60 minute) | Remaining Percentage (%) after 60 min Human ([2]; with NADPH) [%] | half-life at 2 μM ([3]; male, rat, microsomes) [h] | microsomal CLint at 2 μM ([3]; male, rat, microsomes) [µL/min/mg] | Remaining Percentage (%) after 60 min Rat ([3]; with NADPH) [%] | half-life at 2 μM ([4]; male, mouse, microsomes) [h] | microsomal CLint at 2 μM ([4]; male, mouse, microsomes) [µL/min/mg] | Remaining Percentage (%) after 60 min Mouse ([4]; with NADPH) [%] | CLint (μL/min/mg protein) Human ([2]; with NADPH) [μL/min/mg protein] | t1/2 (min) Human ([2]; with NADPH) [min] | CLint (μL/min/mg protein) Rat ([3]; with NADPH) [μL/min/mg protein] | t1/2 (min) Rat ([3]; with NADPH) [min] | CLint (μL/min/mg protein) Mouse ([4]; with NADPH) [μL/min/mg protein] | t1/2 (min) Mouse ([4]; with NADPH) [min] | abstinence rate ([5]; 12 months follow-up) [%] | abstinence rate ([5]; six months follow-up) [%] |
| --- | --- | --- | --- | --- | --- | --- | --- | --- | --- | --- | --- | --- | --- | --- | --- | --- | --- | --- | --- | --- |
| [2H]C([2H])([2H])N(C([2H])([2H])[2H])C([2H])([2H])C([2H])([2H])c1c[nH]c2cccc(OCc3ccccc3)c12 [Compound I-46, 2-(4-(benzyloxy)-1H-indol-3-yl)-N,N-bis(methyl-d3)ethan-1-amine-1,1,2,2-d4] | 72.6 | 106 | 1.31 | 17.6 | rapidly metabolized | 58.94 | 0.593 | 39 | 108.23 | 0.862 | 26.8 | 44.75 | – | – | – | – | – | – | – | – |
| CN(C)CCc1c[nH]c2cccc(O)c12 [Psilocin, 4-hydroxy-N,N-dimethyltryptamine, reference compound] | – | – | – | – | – | 70.16 | – | – | 62.68 | – | – | 96.89 | 11.81 | 117.32 | 15.57 | 89.01 | 9.78 | 141.71 | – | – |
| CN(C)CCc1c[nH]c2cccc(OP(=O)(O)O)c12 [psilocybin, 4-phosphoryloxy-N,N-dimethyltrypatmine] | – | – | – | – | – | – | – | – | – | – | – | – | – | – | – | – | – | – | 67 | 80 |
